Patent US9724537B2, “Abnormal electrical conduction blocking apparatus using photodynamic therapy (PDT)” (Keio University, priority 2006, dated 2017)

Assays:
[1] = Fluorescence observation of photosensitizer distribution in rat cardiac muscle tissue over time; format: in vivo, Wistar rat; details: 2 mg/kg i.v.
Description: As a tissue, the right ventricular free wall isolated from a Wistar rat (male, 8 to 10 weeks old) was used. Immediately after animals were allowed to inhale vaporized diethyl ether, heparin and Nembutal (0.2 and 0.5 ml, respectively) were administered intraperitoneally at a dose of 2 mg/kg, and a solution of Laserphyrin (Meiji Seika Kaisha, Ltd.) dissolved in physiological saline at a dose of 0.5 ml were intravenously injected from the lower extremity vena cava. The heart was isolated at 5 min (Experiment 1), 30 min (Experiment 2), and 60 min (Experiment 3) after injection, and the target tissue was ablated. […] As a sample for fluorescence observation, a cross-section of the above-mentioned tissue was excised in a thickness of 10 μm using a freezing microtome in the direction in which the base and the apex of the heart are aligned, placed on a slide glass, and dried for one or two days.
A light of a mercury lamp (Olympus Corporation) was attenuated with an ND filter (Olympus Corporation, 12%), and only a light in the 400-nm band was extracted with a band path filter (Olympus Corporation) and delivered to the sample as an excitation light. Fluorescence of the photosensitizer was selectively extracted with a dichroic mirror (OMEGA, 636 nm-) and a band path filter (OMEGA, 695 nm; half bandwidth, 27.5 nm) and photographed with a CCD camera. […]

[2] = system: rat atrioventricular node; assay: Atrioventricular block experiment by PDT in in vivo system; parameters: species or system Wistar rat
Description: Wistar rats (male, 8 weeks old) were anesthetized by inhalation of diethyl ether, four limbs and front teeth were fixed, a tube was inserted into the bronchial tube, and an artificial ventilator (Natsume Seisakusho Co., Ltd.) and a forane vaporizer anesthesia apparatus (Shinano Instrument, Co., Ltd.) were introduced into the body. Thoracotomy was performed between the right chest rib, and the experiment was performed while the heart was exposed.
A solution obtained by dissolving Laserphyrin in 5 ml of physiological saline was administered to venous blood from the right ventricular cavity. The photosensitizer dose (D) and the interval to photoradiation in each experiment were as follows.
Experiment 1: D=2 mg/kg, laser irradiation at interval of 5 and 60 min
Experiment 2: D=10 mg/kg, laser irradiation at interval of 2 and 30 min
A semiconductor laser beam (SONY, wavelength peak, 670 nm band) was transmitted using a quartz fiber with a laser intensity of 500 mW/cm^2 at the end. The end was attached to a portion in the vicinity of the base of the aorta, and photoradiation was performed towards the atrioventricular node (existing in a portion approx. 3 mm deep from the surface) in the right atrial inner wall for 10 min with the total dose of laser irradiation of 300 J/cm^2 (FIG. 30).
A needle electrode was inserted into four limbs of a rat, electrocardiogram leads I, II, and III were induced with an electrocardiograph (Nihon Kohden Corporation), and signals were recorded using a biosignal recording/analyzing apparatus and analyzed (FIG. 31). FIG. 31 is a schematic view showing an in vivo experimental system.
After completion of the experiment, the rat chest was closed and sutured. Then, a normal feed and water were given and allowed to survive, and anesthetized again at approx. 2 weeks so that electrocardiography should be performed.
The heart sample of Experiment 1 was isolated after electrocardiography at 2 weeks (the isolation method was the same as in Example 6), 4% paraformaldehyde was introduced from the coronary artery, and the perfusion-fixed sample was immersed in approx. 40 ml of the solution and left on a mix roller overnight. Then, a HE sample and an Azan stained specimen at a laser irradiation site were prepared and observed under a microscope.

in vivo = details: rat, half-life of photosensitizer concentration in the heart
Description: FIG. 46 is a graph showing changes in the photosensitizer concentration in the rat heart at doses of 5 and 2 mg/kg together with changes in plasma concentration in rats and humans.

[3] = rat, cited from earlier work
[4] = Experiment 2: 10 mg/kg, 300 J/cm^2
[5] = Experiment 2: 10 mg/kg, interval 30 min, 300 J/cm^2

C=Cc1c(C)c2cc3nc(c(CC(=O)N[C@@H](CC(=O)O)C(=O)O)c4[nH]c(cc5nc(cc1[nH]2)C(C)=C5CC)c(C)c4C(=O)O)[C@@H](CCC(=O)O)[C@@H]3C [talaporfin sodium, mono-L-aspartyl chlorine 6]
photosensitizer distribution in cardiac muscle tissue ([1]; 30 and 60 min after injection): white streaks were observed all over the images at 30 and 60 min, showing the existence of the photosensitizer in the surroundings | photosensitizer distribution in cardiac muscle tissue ([1]; approx. 5 min after injection): almost no photosensitizer was present immediately after the intravenous injection | electrocardiogram after 2 weeks ([2]; Experiment 1: 2 mg/kg, 300 J/cm^2): the 2:1 atrioventricular block disappeared, and a normal atrioventricular conduction was confirmed | histology (Azan stain) at laser irradiation site at 2 weeks ([2]; Experiment 1: 2 mg/kg, 300 J/cm^2, FIG. 36): a scar tissue (a damaged cellular tissue was replaced with the surrounding collagenic fibers) is observed | atrioventricular block (electrocardiogram) ([2]; Experiment 1: 2 mg/kg, interval 5 min, 300 J/cm^2): an atrioventricular block disappeared during the process of photoradiation | atrioventricular block (electrocardiogram) after photoradiation ([2]; Experiment 1: 2 mg/kg, interval 60 min, 300 J/cm^2): 2:1 atrioventricular block | completeness of conduction block ([2]; Experiment 1, laser irradiation dose 300 J/cm^2): the conduction block was incomplete | electrocardiogram at 2 weeks [2, 4]: a finding of a complete atrioventricular block | time the conduction block effect by PDT was maintained [2, 4]: 2 weeks | atrioventricular block (electrocardiogram) ([2]; Experiment 2: 10 mg/kg, interval 2 min, 300 J/cm^2): a 2:1 atrioventricular block occurred, but was resolved thereafter | atrioventricular block (electrocardiogram) [2, 5]: a 2:1 atrioventricular block and a complete atrioventricular block occurred from immediately after photoradiation | electrocardiogram finding after completion of photoradiation [2, 5]: extrasystoles of the ventricle were observed | half-life (in vivo; 0 to 60 min): 1.08 h | half-life (in vivo; later phase): 13.3 h | average of the half-lives in plasma from 2 to 24 h ([3]; after intravenous injection): 9.6 h | average of the half-lives in plasma from 2 to 60 min ([3]; intravenous injection 10 mg/kg): 47 min
